In patent US10149644B2, “Curcumin derivatives for amyloid-β plaque imaging” (The General Hospital Corporation, priority 2008, dated 2018):
Where two headings read alike, the source gives them in different places. Values belong to the compound of their own block, whether it stands above or below them.

Columns and labels:
senile plaques = assay: Ex vivo histological correlation; type: in vivo, mice; settings: 10 mg/kg i.v.
Description: 19 month-old mouse was injected CRANAD-2 (10.0 mg/kg), and was sacrified after perfusion with 4% formaldehyde. The brain was taken and embedded in OCT. For histology, the brain was sliced into 25μ slices, and co-stained with thioflavin S as described above. To obtain ex vivo confirmation of the probe binding, mice at different ages were i.v injected with 10 mg/kg of CRANAD-2 probe, perfused and scarified at 1 h after injection.

Aβ40 aggregates [1] = biological target: T1, Aβ40 aggregates (Homo sapiens, UniProt P05067); assay: In vitro Aβ aggregates binding constant measurement; settings: Aβ40 aggregates in PBS, fluorescence intensity, nonlinear one-site regression; read-out: Binding constant (Kd) towards Aβ aggregates
T1 construct: Synthetic amyloid-b protein (1-40) was purchased from rPeptide; purchased rPeptide (Bogart, Ga.)
Description: […] The Kd binding curve was generated by software Prism 3.0 with nonlinear one-site binding regression.
Binding constant (Kd) of CRANAD-2 towards Aβ aggregates was measured by fluorescence intensity (F.I.) with various concentrations of the prob.

Aβ40 aggregates [2] = biological target: T1, Aβ40 aggregates; settings: reported values used for comparison; read-out: Kd towards Aβ aggregates (literature); cited from earlier work
Aβ plaques = assay: AD tissue staining of APP-PS1 brain sections; settings: 25 micron sections, 12-month old APP-PS1 mice
Description: The inventors conducted tissue staining with 25 micron brain sections from 12-month old APP-PS1 mice by all the compounds listed in FIG. 12.

Aβ40 aggregates [3] = biological target: T1, Aβ40 aggregates; assay: Aβ aggregates detection in solution by fluorescence spectrum; type: binding; settings: 250 nM compound, 250 nM Aβ40 aggregates, PBS
Description: They then incubated 250 nM of the compounds with 250 nM of Aβ40 aggregates (calculation based on monomer) in PBS for one minute, and then measured the fluorescence spectra of the solutions.

[4] = Fluorescence emission properties of the probes; type: physicochemical; settings: probe alone, methanol (FIG. 2)
Description: Reagents used for synthesis were purchased from Aldrich without further purification. Column chromatography was performed on silica gel (SiliCycle Inc., 60 Å, […]) slurry packed into glass columns. Thioflavin S was purchased from Aldrich. Synthetic amyloid-b protein (1-40) was purchased from rPeptide (Bogart, Ga., 30622) and aggregates for in vitro studies were generated followed the reported procedure. BSA was purchased from Sigma, and human serum was obtained from Invitrogen (type AB). ^1H and ^13C NMR spectra were recorded at 400 MHz and 100 MHz respectively, and are reported in ppm downfield from tetramethylsilane. Fluorescence studies were carried out with F-4500 Fluorescense Spectrophotometer. Fluorescence quantum yields were determined using aqueous solution of Cy5.5-maleimide as a standard (y=0.23). High resolution mass spectra were obtained at the Harvard University, Department of Chemistry Instrumentation Facility. Transgenic Tg2576 mice {45} and littermates were purchased from Taconic Farm, Balb/c mice for BBB penetrating test were obtained from Jackson Laboratory, and the experiment procedure was approved by Massachusetts General Hospital. In vivo imaging was recorded on Kodak Imaging Station 2000MM.
Furthermore, by comparing the fluorescence intensity in methanol, the quantum yield of CRANAD-2 was significant higher than that of curcumin (FIG. 2). […] Additionally, these modifications produced a large stokes shift and improved quantum yield of CRANAD-2. The synthesized compound produced the longest emission and the largest stokes shift among the existing probes for senile plaque detection {3}.

[5] = cited from earlier work

T1 sequence (P05067 672-711 limits assumed): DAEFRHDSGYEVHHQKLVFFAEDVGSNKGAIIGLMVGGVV

SMILES: N#CC(C#N)=Cc1ccc(-c2ccc(-c3ccc(O)cc3)s2)s1 [NIAD-4]
Kd (Aβ40 aggregates [2]): 10 nM

SMILES: [11CH3]Nc1ccc(-c2nc3ccc(O)cc3s2)cc1 [PiB]
Staining of plaques in brain sections (Aβ plaques): stained the plaques brightly

SMILES: Cc1ccc2c(c1)sc(-c1ccc(N(C)C)cc1)[n+]2C.[Cl-] [Thioflavin T]
Staining of plaques in brain sections (Aβ plaques): stained the plaques brightly | FI amplification with Aβ40 aggregates (Aβ40 aggregates [3]): 72 fold | Fluorescence intensity change with Aβ40 aggregates (Aβ40 aggregates [3]; one minute): intensity increases

Further lines, with some results ahead:

Kd (Aβ40 aggregates [1]): 1 nM
SMILES: COc1cc(C=CC2=CC(C=Cc3ccc(O)c(OC)c3)=[O+][B-](F)(F)O2)ccc1O [CRANAD-1, 1,7-Bis-(4-hydroxy-3-methoxyphenyl)-hepta-1,6-diene-2′,2′-difluoro-1′,3′-dioxaboryl-3,5-dione]
Labelling of senile plaques ex vivo after i.v. injection (senile plaques; 11-month old transgenic and wild-type mice, thioflavin S staining): could not find obvious senile plaques | Labelling of senile plaques ex vivo after i.v. injection (senile plaques; 19-month old transgenic mice): can penetrate BBB and label senile plaques in vivo

Fluorescence intensity change with Aβ40 aggregates (Aβ40 aggregates [3]; one minute): intensity increases | Wavelength shift with Aβ40 aggregates (Aβ40 aggregates [3]; one minute): wavelength blue-shifts | Stokes shift [4]: 50 nm | λmax(em) [4]: 560 nm | λmax(ex) [4]: 510 nm
SMILES: COc1cc(C=CC(=O)CC(=O)C=Cc2ccc(O)c(OC)c2)ccc1O [curcumin, 1,7-bis(4-hydroxy-3-methoxyphenyl)-1,6-heptadiene-3,5-dione]
Staining of plaques in brain sections (Aβ plaques): stained the plaques brightly | log P (literature) [5]: < 2
